In publication PMC7356613, “Unsymmetrically-Substituted 5,12-dihydrodibenzo[b,f][1,4]diazocine-6,11-dione Scaffold—A Useful Tool for Bioactive Molecules Design” (Molecules, 2020):
Read-outs that look alike come from different tables or passages of the source.

How the values were obtained:
[1] = test system: EUFA30 cells (non-cancerous human fibroblasts); experiment: Alamar Blue cytotoxicity assay, EUFA30; type: cell-based; settings: Fibroblast; for inhibition at 300 µM: bracketed values, read-out: proliferation inhibition expressed as a percentage at highest concentration used
Description: (§1) HeLa, U87, BICR18, EUFA30 cell lines were cultured in DMEM medium (Life Technology) supplemented with 10% fetal bovine serum (Life Technology) and 0.1% antibiotics, penicillin and streptomycin (Life Technology). Cells were grown in a humidified atmosphere of CO2/air (5/95%) at 37 °C.
(§2) Exponentially growing cells were seeded onto a 96-well plate at the density of 2 × 10^3 cells/well, cultured for 18 h, and treated with newly synthesized derivatives at concentrations 1–300 µM, or with DMSO as a control, for 24 or 48 h. Alamar Blue (Invitrogen) was added accordingly to manufacturer protocol. After 4 h, light emission at 590 nm was measured with excitation at 560 nm using a scanning multiwell spectrophotometer (DTX 880, Beckman Coulter). The experiments were carried out at least three times with three replicates for each inhibitor concentration. After background subtraction, inhibition rate, IC50 was calculated as the concentration of the component inhibiting cell growth by 50%. All the calculations were performed using Origin 9.0 software.

[2] = test system: HeLa cells (cervix adenocarcinoma); experiment: Alamar Blue cytotoxicity assay, HeLa; type: cell-based; settings: Homo sapiens; for IC50: 24 h of treatment, read-out: IC50 based on survival of cells
Description: as §1, §2

[3] = test system: BICR18 cells (laryngeal squamous cell carcinoma); experiment: Alamar Blue cytotoxicity assay, BICR18; type: cell-based; settings: for IC50: read-out: IC50 based on survival of cells
Description: as §1, §2

[4] = test system: U87 cells (human primary glioblastoma); experiment: Alamar Blue cytotoxicity assay, U87; type: cell-based; settings: U-87 MG; for inhibition at 300 µM: bracketed values, read-out: proliferation inhibition expressed as a percentage at highest concentration used
Description: as §1, §2

[5] = test system: EUFA30 cells; experiment: Annexin V-FITC / propidium iodide flow cytometry, EUFA30; type: cell-based, human; settings: EUFA30, 200 µM, 24 h; for dead cell fraction: early apoptosis: non-treated control 0.3%; for dead cell fraction: late apoptosis: non-treated control 0.4%; for dead cell fraction: necrosis: non-treated control 5.7%
Description: as §1
(§3) The Annexin V-FITC apoptosis detection kit (BD Biosciences) was used to detect apoptosis by flow cytometry. Cells were seeded at Petri dishes, cultured for 18 h with tested agents applied for 24 h. DMSO was added as the non-treated control and camptothecin (CPT) as the positive control. Subsequently, cells were washed with PBS, resuspended in binding buffer at a concentration of 2 × 10^6 cells/mL, and anti-Annexin V FITC-conjugated antibody and propidium iodide were added to 100 µL aliquots. The mixtures were incubated for 15 min at room temperature, supplemented with binding buffer to 500 µL and processed by BD FACSCalibur (BD Biosciences). Data were analyzed in Flowing Software version 2.5.1 (Flowing Software, http://www.uskonaskel.fi/flowingsoftware).

[6] = test system: HeLa cells; experiment: Annexin V-FITC / propidium iodide flow cytometry, HeLa; type: cell-based; settings: 200 µM, 24 h, non-treated control 5.4%
Description: as §1, §3

[7] = test system: EUFA30, HeLa, BICR18, U87 cells; experiment: Alamar Blue cytotoxicity assay, statements over all tested cell lines; type: cell-based; settings: Homo sapiens, concentrations 1-300 µM, group range = lowest to highest value, read-out: IC50 across the tested cell lines
Description: as §1, §2

Structure (SMILES): CCOC(=O)CN1C(=O)c2cc(Cl)c(Cl)cc2C(=O)N(C)c2ccccc21 [Compound 3n, ethyl 2-(8,9-dichloro-12-methyl-6,11-dioxo-11,12-dihydrodibenzo[b,f][1,4]diazocin-5(6H)-yl)acetate]
- inhibition at 300 µM ([1]; EUFA30, 24 h): 41.5%
- IC50 [2]: 311 ± 14.1 µM
- inhibition at 300 µM ([3]; BICR18, 24 h, 300 µM, bracketed values, read-out: proliferation inhibition expressed as a percentage at highest concentration used): 20.9%
- inhibition at 300 µM ([4]; U87, 24 h): 30.7%
- dead cell fraction: early apoptosis [5]: 7.8%
- dead cell fraction: late apoptosis [5]: 1.4%
- dead cell fraction: necrosis [5]: 1.9%
- number of necrotic cells [6]: 11.3%
- IC50 [7]: 93.7 to 323 µM

Structure (SMILES): CC(=O)N1C(=O)c2ccccc2C(=O)N(Cc2ccccc2)c2ccccc21 [Compound 3o, 5-acetyl-12-benzyl-5,12-dihydrodibenzo[b,f][1,4]diazocine-6,11-dione]
- IC50 ([1]; EUFA30, 24 h of treatment, read-out: IC50 based on survival of cells): 155 ± 14.6 µM
- inhibition at 300 µM ([1]; EUFA30, 48 h): 41.8%
- IC50 [2]: 169 ± 13.4 µM
- inhibition at 300 µM ([2]; 48 h, 300 µM, bracketed values, read-out: proliferation inhibition expressed as a percentage at highest concentration used): 33.4%
- IC50 ([3]; BICR18, 24 h of treatment): 121 ± 11.4 µM
- IC50 ([3]; BICR18, 48 h of treatment, N.A. = not active): 294 ± 3.2 µM
- IC50 ([4]; U87, 24 h of treatment, read-out: IC50 based on survival of cells): 240 ± 6.1 µM
- inhibition at 300 µM ([4]; U87, 48 h): 33.8%
- dead cell fraction: early apoptosis [5]: 9.5%
- dead cell fraction: late apoptosis [5]: 6.4%
- dead cell fraction: necrosis [5]: 0.8%
- number of necrotic cells [6]: 27.7%
- IC50 [7]: 93.7 to 323 µM
